Assay [1] has as its system sugar cane Variety RB 86-7515. Briefly: Greenhouse pot test: effect of formulated fipronil on vigour. It counts as in vivo. Conditions: result in words.
Description: Greenhouse test with sugarcane buds growing in pots were conducted to study the effect of fipronil equivalent to an application rate of 200 g. ha^−1 on “vigour”, evaluating tillers, plant height, leaf width and culm diameter on sugar cane Variety RB 86-7515.
Twenty 1 L pots were filled with 16 L of clay soil, 1.6 L of sand and 8 g of nitrogen, 28 g of phosphorus (P2O5) and 16 g of potassium (K2O). Six carretels of 4 cm length with one bud were planted in each pot (treatments 1, 2, 4 and 5). Two stalks with three buds were planted in each control pot (treatments 3 and 6) to simulate conventional planting. A layer of 3 cm of soil was used to cover the carretels. The carretels of treatments 1 and 2 were treated with 200 g ai·ha^−1 of fipronil, by dipping the carretels in the slurry for 3 min, based on the uptake capacity of carretels. The stalks were treated simulating a furrow application at 100 L·ha^−1 of slurry. Experimental design adopted was randomized complete block with four replications. The pots were maintained with adequate moisture during the test. Evaluations of: plant height, leaf width, culm diameter and number of tillers were done at 20, 30 and 42 days after planting.
Assay [2] concerns sugarcane Variety RB 86-7515. Briefly: Greenhouse pot test: effect of formulated thiamethoxam on vigour. In kind it is in vivo, sugar cane. Conditions: result in words. How it is done:
This trial was conducted on Variety RB 86-7515.

For assay [3], the system named is sugar cane Variety RB 86-7515. Briefly: Greenhouse pot test: effect of formulated abamectin on vigour. Conditions: Carretel with one bud; 100 g ai/ha; 42 days after planting. It counts as in vivo.
Description: Greenhouse test with sugarcane buds growing in pots were conducted to study the effect of formulated abamectin regarding “vigour”, tillers, plant height, leaf width and culm diameter on sugar cane Variety RB 86-7515.
Twenty 1 L pots were filled with 16 L of clay soil, 1.6 L of sand and 8 g of nitrogen, 28 g of phosphorus (P2O5) and 16 g of potassium (K2O). Six carretels of 4 cm length with only one bud were planted in each pot (treatments 1, 2, 4 and 5). Two stalks with three buds were planted in each control pot (treatments 3 and 6) to simulate conventional planting. A layer of 3 cm of soil was used to cover the carretels. The carretels of treatments 1, 2 were treated with 200 ml/ha of abamectin, by dipping the carretels in the slurry for 3 min, based on the uptake capacity of carretels. The stalks were treated simulating a furrow application at 100 L·ha^−1 of slurry. Experimental design adopted was randomized complete block with four replications. The pots were maintained with adequate moisture during the test. Evaluations of: plant height, leaf width, culm diameter and number of tillers were done at 20, 30 and 42 days after planting.

As to `N#Cc1nn(-c2c(Cl)cc(C(F)(F)F)cc2Cl)c(N)c1[S+]([O-])C(F)(F)F` (centres unmarked) [Fipronil, fipronil], the “height of the resultant plants in comparison with the control” value in assay [1] is listed as “decreased the height”.
Regarding `CN1COCN(Cc2cnc(Cl)s2)/C1=N\[N+](=O)[O-]` [Thiamethoxam, thiamethoxam], in assay [2] (carretels), the “number of tillers in comparison with the corresponding controls” value is recorded as “increased number of tillers” and the “plant height in comparison with the corresponding controls” value was “reduced plant height”. For the same compound, the ““quality” compared with the other treatments” value in assay [2] (overall assessment, not apparent from the listed parameters) is on record as “increase in “quality” greater than the other treatments”.
In the case of abamectin, the Tillers in assay [3] amounted to 14 number.
